This note sets out measurements from ChEMBL document CHEMBL1201862, “PubChem BioAssay data set” (2004).

Test systems include HL-60; SNB-19; CAKI-1; ACHN; A498; NCI/ADR-RES; M19-MEL; 786-0; HCC 2998; Malme-3M; SNB-75; LOX IMVI; KM12; SF-268; K562; T47D; HCT-15; HOP-92; PC-3; MOLT-4.
What all share (test): DTP human tumour cell line panel, 48 h

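All cell lines were grown in 96-well plates and treated with compound for 48 hours. GI50 is the concentration that inhibits growth by half.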 The source made the active and inactive calls. Cut-off read from the data, not from the text of the source: active = GI50 up to about 1.1 µM and inactive = higher.

By GI50 is commonly meant the concentration giving 50% growth inhibition. On to `CCCC/C=C1/CCC(CN(C)C)C1=O` (stereo unspecified), for which the GI50 was 0.885 µM (active) with HL-60; 5.97 µM (inactive) with SNB-19; 0.745 µM (active) in the assay on CAKI-1; 2.05 µM (inactive) in the assay with ACHN; 8.77 µM (inactive) with A498; 2.64 µM (inactive) with NCI/ADR-RES. For the same compound, the GI50 is 1.41 µM (inactive) in the assay on M19-MEL; 1.55 µM (inactive) in the assay on 786-0; 1.56 µM (inactive) in the assay on HCC 2998; 1.98 µM (inactive) in the assay with Malme-3M; 3.21 µM (inactive) in the assay on SNB-75; 1.39 µM (inactive) with LOX IMVI. Moreover, the GI50 in the assay on KM12 is 0.673 µM (active); in the assay on SF-268, 2.47 µM (inactive); in the assay with K562, 0.701 µM (active); with T47D, 1.31 µM (inactive); in the assay on HCT-15, 0.401 µM; in the assay with HOP-92 it was 2.07 µM (inactive). Also, in the assay with PC-3, the GI50 is 14.1 µM (inactive).
In the case of `Cc1nc2sccn2c1C(=O)NC(=O)Nc1ccc(Cl)cc1`, the GI50 is > 100 µM (inactive) in the assay on HL-60; 42.2 µM (inactive) in the assay with SNB-19; > 100 µM (inactive) with CAKI-1; > 100 µM (inactive) with ACHN; > 100 µM (inactive) in the assay with A498; > 100 µM (inactive) with M19-MEL. Further, the GI50 in the assay on 786-0 is 48.2 µM (inactive); in the assay on HCC 2998, > 100 µM (inactive); in the assay on MOLT-4, > 100 µM (inactive); in the assay with Malme-3M, > 100 µM (inactive); in the assay on SNB-75, 24.3 µM (inactive); in the assay on LOX IMVI, > 100 µM (inactive). Also, the GI50 in the assay on KM12 was > 100 µM (inactive); in the assay on SF-268, 39.6 µM (inactive); in the assay with K562, > 100 µM (inactive); in the assay with HCT-15, above 100 µM; with HOP-92, 31.2 µM (inactive).
Take `O=S1(=O)CCC2=CC(C(F)(F)F)=CC(C(F)(F)F)=CN21`: the GI50 in the assay on HL-60 was 0.168 µM (active); in the assay with SNB-19 it was 2.47 µM (inactive); in the assay on CAKI-1, 0.56 µM (active); in the assay on ACHN, 0.415 µM (active); in the assay with A498, 2.08 µM (inactive); in the assay on NCI/ADR-RES, 1.09 µM (active). Moreover, the GI50 in the assay with M19-MEL is 1.41 µM (inactive); in the assay with 786-0, 0.415 µM (active); in the assay with HCC 2998, 2.07 µM (inactive); with MOLT-4, 0.243 µM (active); with Malme-3M it was 0.733 µM (active); in the assay with SNB-75 it was 1.71 µM (inactive). Besides, the GI50 with LOX IMVI is 0.348 µM (active); with KM12 it was 1.71 µM (inactive); with SF-268, 1.72 µM (inactive); with K562, 0.39 µM (active); in the assay with T47D, 0.167 µM (active); in the assay on HCT-15, 0.485 µM. Also, the GI50 with HOP-92 is 1.15 µM (inactive); in the assay with PC-3, 2.01 µM (inactive).
Turning to `Cc1cccc(-c2nnc3s/c(=C\c4ccc5c(c4)OCO5)c(=O)n23)c1`, the GI50 in the assay with HL-60, with SNB-19, in the assay with CAKI-1, with ACHN, in the assay with A498 and in the assay on M19-MEL was > 100 µM (inactive) in each case. In addition, the GI50 is > 100 µM (inactive) with 786-0; > 100 µM (inactive) in the assay with HCC 2998; > 100 µM (inactive) in the assay on MOLT-4; > 100 µM (inactive) in the assay with Malme-3M; 26.9 µM (inactive) in the assay on SNB-75; > 100 µM (inactive) with LOX IMVI. In addition, the GI50 with KM12 is > 100 µM (inactive); in the assay with SF-268 it was > 100 µM (inactive); in the assay with K562, > 100 µM (inactive); in the assay on HCT-15 it was above 100 µM; with HOP-92, > 100 µM (inactive).
Regarding `COc1cccc2nc3c(C(=O)NCCN(C)C)cccc3nc12`, the GI50 was 4.51 µM (inactive) in the assay on HL-60; 17.4 µM (inactive) in the assay on SNB-19; 17.1 µM (inactive) in the assay with CAKI-1; 4.3 µM (inactive) in the assay with ACHN; 9.27 µM (inactive) with A498; 8.07 µM (inactive) in the assay on M19-MEL. The GI50 was 10.6 µM (inactive) with 786-0; 10.8 µM (inactive) with HCC 2998; 3.61 µM (inactive) in the assay on MOLT-4; 7.96 µM (inactive) with Malme-3M; 12.4 µM (inactive) in the assay with SNB-75; 4.2 µM (inactive) with LOX IMVI. The GI50 was 7.19 µM (inactive) in the assay with KM12; 0.713 µM (active) in the assay with SF-268; 3.76 µM (inactive) with K562; 7 µM in the assay on HCT-15; 6.17 µM (inactive) with HOP-92.
For `CC1=C(C(=O)Nc2ccccc2C)C(c2ccccc2)C(C(=O)Nc2ccccc2C)=C(C)N1`, the GI50 in the assay on HL-60 was 15.2 µM (inactive); with SNB-19, 45.8 µM (inactive); with CAKI-1, 24.9 µM (inactive); in the assay with ACHN it was 26.3 µM (inactive); in the assay on A498, 29.7 µM (inactive); with M19-MEL, 37.2 µM (inactive). Moreover, the GI50 in the assay on 786-0 was 68.9 µM (inactive); with HCC 2998, 32.4 µM (inactive); with MOLT-4 it was 9.95 µM (inactive); with Malme-3M, 35.1 µM (inactive); in the assay on SNB-75, 35.6 µM (inactive); in the assay on LOX IMVI it was 16 µM (inactive). Moreover, the GI50 was 26.6 µM (inactive) in the assay on KM12; > 100 µM (inactive) in the assay with SF-268; 22.6 µM (inactive) in the assay on K562; 40.6 µM with HCT-15; 6.61 µM (inactive) with HOP-92.
For `CC[C@@]1(O)C(=O)OCc2c1cc1n(c2=O)Cc2cc3cc(O)ccc3nc2-1` [HYDROXYCAMPTOTHECIN], the GI50 in the assay with HL-60 was 0.0161 µM (active); in the assay on CAKI-1 it was 0.00971 µM (active); in the assay with ACHN it was < 0.0116 µM (active); with NCI/ADR-RES, 0.0232 µM (active); with M19-MEL, 0.0513 µM (active); with 786-0, 0.0241 µM (active). Also, the GI50 with MOLT-4 is 0.00944 µM (active); in the assay with Malme-3M, 0.0498 µM (active); with SNB-75, 0.014 µM (active); in the assay on LOX IMVI, 0.0337 µM (active); in the assay on T47D, 0.01 µM (active); in the assay with HCT-15, 0.295 µM. For the same compound, the GI50 in the assay on HOP-92 was 0.0277 µM (active); with PC-3, 0.084 µM (active).
